Reference: patent US11000488B2 (priority 2019, dated 2021)
Read-outs that look alike come from different tables or passages of the source.

Columns and labels:
pupil diameter = assay: pupillometry, trial A; format: in vivo, human; details: after dosing
cold-induced pain = assay: cold pressor test (cold-induced pain), trials A and B; format: in vivo, human
[1] = single dose 100 mg racemic tramadol, cited from earlier work
[2] = human, in vivo, cited from earlier work
[3] = respiration and other vital signs, trials A and B; details: trial A
[4] = drug-related adverse events, safety population, trials A and B
[5] = steady-state pharmacokinetics, 50 mg tramadol vs 20 mg desmetramadol every 6 hours, nine doses, trials A and B (B with paroxetine); details: after tramadol dosing, with vs without paroxetine
[6] = trial A (n = 43, males), 0-10 VAS
[7] = trial B (n = 18, females), with paroxetine
[8] = trial B (n = 18, females), with paroxetine, 0-10 VAS
[9] = trial B (n = 42, males), with paroxetine
[10] = trial B (n = 42, males), with paroxetine, 0-10 VAS

## COc1cccc(C2(O)CCCCC2CN(C)C)c1 (racemic) [tramadol]
Pupil diameter
  pupil diameter, mean paired reduction [SD] compared to placebo: −0.7 (0.6) millimeters
cold-induced pain; trial A
  average duration of tolerance to pain: 62 s
cold-induced pain; trial A (n = 43, males)
  Time to first pain, mean difference versus placebo: 2.1 s
  Time to withdrawal, mean difference versus placebo: 12.4 (4.4) seconds
cold-induced pain; [6]
  Pain intensity at 30 seconds, MPD versus placebo: −0.46
  Pain intensity at first perception, MPD versus placebo: −0.21
cold-induced pain; trial A (n = 43, males), listed as TRAMADOL
  Time to withdrawal, mean difference versus placebo: 12.4 s
cold-induced pain; trial A, 0-10 VAS
  Average (SD) subject-reported pain scores at 30 seconds: 6.0 (1.7)
cold-induced pain; [7]
  Time to first pain, MPD versus placebo: 2.6 s
  Time to withdrawal, MPD versus placebo: 7.5 s
cold-induced pain; [8]
  Pain intensity at 30 seconds, MPD versus placebo: 0.03
  Pain intensity at first perception, MPD versus placebo: 0.01
cold-induced pain; [9]
  Time to first pain, MPD versus placebo: 1.5 s
  Time to withdrawal, MPD versus placebo: 6.9 (1.6) seconds
cold-induced pain; [10]
  Pain intensity at 30 seconds, MPD versus placebo: failed to statistically differentiate from placebo
  Pain intensity at first perception, MPD versus placebo: −0.08
cold-induced pain; trial B (n = 42, males), with paroxetine, 0-10 VAS, listed as TRAMADOL
  Pain intensity at 30 seconds, MPD versus placebo: −0.25
cold-induced pain; trial B (n = 42, males), with paroxetine, listed as TRAMADOL
  Time to withdrawal, MPD versus placebo: 6.9 s
[1]; EM group (11 EMs)
  subjects experiencing nausea: 9%
[1]; UM group (11 UMs)
  subjects experiencing nausea: ~50%
[2]
  lethal dose: > 5 grams
[3]
  pre-dose versus post-dose effect on respiratory rate compared to placebo or each other: no discernable pre-dose versus post-dose effect
[4]; trial A
  Deaths: 0 (0) N (%)
  Severe AEs: 0 (0) N (%)
  subjects reporting drug-related AEs: 49%
[4]; trial A (N = 43)
  All AEs: 20 (49) N (%)
[4]; trial A, all subjects
  Dizziness: 5 (12) N (%)
  Euphoria: 0 (0) N (%)
  Feel abnormal: 1 (2) N (%)
  Feel hot: 0 (0) N (%)
  Headache: 7 (17) N (%)
  Nausea: 5 (12) N (%)
  Presyncope: 0 (0) N (%)
  Pruritus: 4 (10) N (%)
  Somnolence: 2 (5) N (%)
  Spasticity: 1 (2) N (%)
  Sweating: 0 (0) N (%)
  Vomiting: 1 (2) N (%)
[4]; trial A, male
  Dizziness: 5 (12) N (%)
  Euphoria: 0 (0) N (%)
  Feel abnormal: 1 (2) N (%)
  Feel hot: 0 (0) N (%)
  Headache: 7 (17) N (%)
  Nausea: 5 (12) N (%)
  Presyncope: 0 (0) N (%)
  Pruritus: 4 (10) N (%)
  Somnolence: 2 (5) N (%)
  Spasticity: 1 (2) N (%)
  Sweating: 0 (0) N (%)
  Vomiting: 1 (2) N (%)
[4]; trial B
  Deaths: 0 (0) N (%)
  Severe AEs: 0 (0) N (%)
[4]; trial B (N = 60), with paroxetine
  All AEs: 30 (50) N (%)
[4]; trial B, all subjects
  Dizziness: 8 (13) N (%)
  Euphoria: 1 (2) N (%)
  Feel abnormal: 2 (3) N (%)
  Feel hot: 0 (0) N (%)
  Headache: 6 (10) N (%)
  Nausea: 8 (13) N (%)
  Presyncope: 1 (2) N (%)
  Pruritus: 1 (2) N (%)
  Somnolence: 4 (7) N (%)
  Spasticity: 3 (5) N (%)
  Sweating: 1 (2) N (%)
  Vomiting: 2 (3) N (%)
[4]; trial B, female
  Dizziness: 4 (22) N (%)
  Euphoria: 0 (0) N (%)
  Feel abnormal: 0 (0) N (%)
  Feel hot: 0 (0) N (%)
  Headache: 6 (33) N (%)
  Nausea: 2 (11) N (%)
  Presyncope: 0 (0) N (%)
  Pruritus: 1 (6) N (%)
  Somnolence: 2 (11) N (%)
  Spasticity: 0 (0) N (%)
  Sweating: 0 (0) N (%)
  Vomiting: 0 (0) N (%)
[4]; trial B, male
  Dizziness: 4 (10) N (%)
  Euphoria: 1 (2) N (%)
  Feel abnormal: 2 (5) N (%)
  Feel hot: 0 (0) N (%)
  Headache: 0 (0) N (%)
  Nausea: 6 (14) N (%)
  Presyncope: 1 (2) N (%)
  Pruritus: 0 (0) N (%)
  Somnolence: 2 (5) N (%)
  Spasticity: 3 (7) N (%)
  Sweating: 1 (2) N (%)
  Vomiting: 2 (5) N (%)
[4]; trial B, same subjects
  headache, tramadol AE profile compared to the desmetramadol AE profile: −40%
  nausea, tramadol AE profile compared to the desmetramadol AE profile: −50%
  presyncope, tramadol AE profile compared to the desmetramadol AE profile: −83%
  pruritus, tramadol AE profile compared to the desmetramadol AE profile: −75%
  somnolence, tramadol AE profile compared to the desmetramadol AE profile: −60%
  vomiting, tramadol AE profile compared to the desmetramadol AE profile: −78%
[4]; trial B, with paroxetine
  subjects reporting drug-related AEs: 50%

## COc1ccc2c3c1O[C@H]1C(=O)CC[C@@]4(O)[C@@H](C2)N(C)CC[C@]314 [oxycodone]
[2]
  lethal oral dose: 40 mg

## COc1cccc(C2(O)CCCCC2CN(C)C)c1 (single isomer, unassigned; (-)) [(−)-tramadol, 1S,2S-tramadol, reference compound]
[5]
  levels in trial B as % of levels in trial A: 200%

## COc1ccc2c3c1O[C@H]1C(=O)CC[C@H]4[C@@H](C2)N(C)CC[C@]314 [hydrocodone]
[2]
  lethal oral dose: 90 mg

## COc1cccc([C@@]2(O)CCCC[C@@H]2CN(C)C)c1 [(+)-tramadol, 1R,2R-tramadol, reference compound]
[5]
  levels in trial B as % of levels in trial A: 200%
